PubChem BioAssay (NCI)
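Following 48 hours of exposure in 96-well plates, responses at five concentrations were used to interpolate endpoints linearly. TGI is the concentration that stops growth completely.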

Columns and labels:
Assay in all cases: NCI tumour cell line growth inhibition, 48 h
COLO 205 colon = test system: COLO 205 colon
CAKI-1 renal = test system: CAKI-1 renal
HCT-15 colon = test system: HCT-15 colon
SF-295 CNS = test system: SF-295 CNS
EKVX NSCLC = test system: EKVX NSCLC
786-0 renal = test system: 786-0 renal
SK-MEL-2 melanoma = test system: SK-MEL-2 melanoma
HCT-116 colon = test system: HCT-116 colon
OVCAR-8 ovarian = test system: OVCAR-8 ovarian
M14 melanoma = test system: M14 melanoma
SF-539 CNS = test system: SF-539 CNS
SNB-75 CNS = test system: SNB-75 CNS
NCI-H226 lung = test system: NCI-H226 lung
SNB-78 CNS = test system: SNB-78 CNS
OVCAR-4 ovarian = test system: OVCAR-4 ovarian
UO-31 renal = test system: UO-31 renal
M19-MEL melanoma = test system: M19-MEL melanoma
NCI-H23 lung = test system: NCI-H23 lung
K-562 leukemia = test system: K-562 leukemia
MOLT-4 leukemia = test system: MOLT-4 leukemia
SF-268 CNS = test system: SF-268 CNS
CCRF-CEM leukemia = test system: CCRF-CEM leukemia
NCI-H460 lung = test system: NCI-H460 lung
RPMI-8226 leukemia = test system: RPMI-8226 leukemia
TK-10 renal = test system: TK-10 renal
LOX IMVI melanoma = test system: LOX IMVI melanoma
OVCAR-5 ovarian = test system: OVCAR-5 ovarian
HT29 colon = test system: HT29 colon
HOP-62 NSCLC = test system: HOP-62 NSCLC
HCC-2998 colon = test system: HCC-2998 colon
RXF-631 renal = test system: RXF-631 renal
ACHN renal = test system: ACHN renal
UACC-62 melanoma = test system: UACC-62 melanoma
UACC-257 melanoma = test system: UACC-257 melanoma
HOP-92 NSCLC = test system: HOP-92 NSCLC
DMS 273 small cell lung = test system: DMS 273 small cell lung
SK-MEL-5 melanoma = test system: SK-MEL-5 melanoma
KM12 colon = test system: KM12 colon
RXF 393 renal = test system: RXF 393 renal
SW-620 colon = test system: SW-620 colon
SNB-19 CNS = test system: SNB-19 CNS
SK-MEL-28 melanoma = test system: SK-MEL-28 melanoma
U251 CNS = test system: U251 CNS
DLD-1 colon = test system: DLD-1 colon
A498 renal = test system: A498 renal
IGROV1 ovarian = test system: IGROV1 ovarian
HL-60(TB) leukemia = test system: HL-60(TB) leukemia
A549 NSCLC = test system: A549 NSCLC
OVCAR-3 ovarian = test system: OVCAR-3 ovarian
KM20L2 colon = test system: KM20L2 colon
DMS 114 small cell lung = test system: DMS 114 small cell lung
HOP-18 NSCLC = test system: HOP-18 NSCLC
SN12C renal = test system: SN12C renal
SK-OV-3 ovarian = test system: SK-OV-3 ovarian
NCI-H522 lung = test system: NCI-H522 lung
XF 498 CNS = test system: XF 498 CNS
MALME-3M melanoma = test system: MALME-3M melanoma
SR leukemia = test system: SR leukemia
LXFL 529 NSCLC = test system: LXFL 529 NSCLC

CCOC1=C2C(C)(CCC3[C@@]4(C)C=CC(=O)C(C)(C)C4CC(O)[C@@]23C)C(c2ccoc2)C1=O (stereo partly drawn) was tested, and the TGI (COLO 205 colon) was 29.3 µM, the TGI (CAKI-1 renal) was greater than 100 µM and the TGI (HCT-15 colon) was 27.5 µM. For the same compound, the TGI (SF-295 CNS) was 46.5 µM, the TGI (EKVX NSCLC) was 67.7 µM and the TGI (786-0 renal) was 39.8 µM. For the same compound, the TGI (SK-MEL-2 melanoma) was 43.4 µM, the TGI (HCT-116 colon) was 23.7 µM and the TGI (OVCAR-8 ovarian) was 44.3 µM. For the same compound, the TGI (M14 melanoma) was greater than 100 µM, the TGI (SF-539 CNS) was 41.7 µM and the TGI (SNB-75 CNS) was greater than 100 µM. For the same compound, the TGI (NCI-H226 lung) was 55.4 µM, the TGI (SNB-78 CNS) was greater than 100 µM and the TGI (OVCAR-4 ovarian) was greater than 100 µM. The TGI (UO-31 renal) was 29.1 µM, the TGI (M19-MEL melanoma) was 44.1 µM and the TGI (NCI-H23 lung) was 34.8 µM. The TGI (K-562 leukemia) was 50.2 µM, the TGI (MOLT-4 leukemia) was 40.4 µM and the TGI (SF-268 CNS) was greater than 100 µM. The TGI (CCRF-CEM leukemia) was 38.9 µM, the TGI (NCI-H460 lung) was 28.4 µM and the TGI (RPMI-8226 leukemia) was 49.8 µM. It also gave a TGI (TK-10 renal) of 61.3 µM, a TGI (LOX IMVI melanoma) of 29.1 µM and a TGI (OVCAR-5 ovarian) of 36 µM. It also gave a TGI (HT29 colon) of 29.2 µM, a TGI (HOP-62 NSCLC) of 36.8 µM and a TGI (HCC-2998 colon) of 31.1 µM. The TGI (RXF-631 renal) was 70.5 µM, the TGI (ACHN renal) was 37.4 µM and the TGI (UACC-62 melanoma) was 57.7 µM. For the same compound, the TGI (UACC-257 melanoma) was 99.3 µM, the TGI (HOP-92 NSCLC) was 41.9 µM and the TGI (DMS 273 small cell lung) was greater than 100 µM. For the same compound, the TGI (SK-MEL-5 melanoma) was 29.5 µM, the TGI (KM12 colon) was 46.6 µM and the TGI (RXF 393 renal) was 34 µM. The TGI (SW-620 colon) was 46.2 µM, the TGI (SNB-19 CNS) was greater than 100 µM and the TGI (SK-MEL-28 melanoma) was 30.5 µM. For the same compound, the TGI (U251 CNS) was 34.8 µM, the TGI (DLD-1 colon) was 29.7 µM and the TGI (A498 renal) was 33.9 µM. For the same compound, the TGI (IGROV1 ovarian) was greater than 100 µM, the TGI (HL-60(TB) leukemia) was 36.3 µM and the TGI (A549 NSCLC) was 98.6 µM. For the same compound, the TGI (OVCAR-3 ovarian) was 33.4 µM, the TGI (KM20L2 colon) was 32 µM and the TGI (DMS 114 small cell lung) was 36.8 µM. It also gave a TGI (HOP-18 NSCLC) greater than 100 µM, a TGI (SN12C renal) of 58 µM and a TGI (SK-OV-3 ovarian) of 76.8 µM.
For COc1cc2c3c(c1OCc1ccccc1)NCCC3NCC2 (stereo not drawn), the TGI (NCI-H522 lung) was greater than 100 µM, the TGI (COLO 205 colon) was greater than 100 µM and the TGI (CAKI-1 renal) was greater than 100 µM. For the same compound, the TGI (HCT-15 colon) was greater than 100 µM, the TGI (SF-295 CNS) was greater than 100 µM and the TGI (EKVX NSCLC) was greater than 100 µM. It also gave a TGI (786-0 renal) greater than 100 µM, a TGI (XF 498 CNS) greater than 100 µM and a TGI (HCT-116 colon) greater than 100 µM. The TGI (OVCAR-8 ovarian) was greater than 100 µM, the TGI (M14 melanoma) was greater than 100 µM and the TGI (SF-539 CNS) was greater than 100 µM. It also gave a TGI (SNB-75 CNS) greater than 100 µM, a TGI (NCI-H226 lung) greater than 100 µM and a TGI (SNB-78 CNS) greater than 100 µM. The TGI (OVCAR-4 ovarian) was greater than 100 µM, the TGI (UO-31 renal) was greater than 100 µM and the TGI (M19-MEL melanoma) was greater than 100 µM. For the same compound, the TGI (NCI-H23 lung) was greater than 100 µM, the TGI (K-562 leukemia) was greater than 100 µM and the TGI (MOLT-4 leukemia) was greater than 100 µM. The TGI (MALME-3M melanoma) was greater than 100 µM, the TGI (SF-268 CNS) was greater than 100 µM and the TGI (CCRF-CEM leukemia) was greater than 100 µM. For the same compound, the TGI (NCI-H460 lung) was greater than 100 µM, the TGI (RPMI-8226 leukemia) was greater than 100 µM and the TGI (TK-10 renal) was greater than 100 µM. For the same compound, the TGI (LOX IMVI melanoma) was greater than 100 µM, the TGI (OVCAR-5 ovarian) was greater than 100 µM and the TGI (HT29 colon) was greater than 100 µM. For the same compound, the TGI (HOP-62 NSCLC) was greater than 100 µM, the TGI (HCC-2998 colon) was greater than 100 µM and the TGI (SR leukemia) was greater than 100 µM. For the same compound, the TGI (RXF-631 renal) was greater than 100 µM, the TGI (UACC-62 melanoma) was greater than 100 µM and the TGI (UACC-257 melanoma) was greater than 100 µM. The TGI (HOP-92 NSCLC) was greater than 100 µM, the TGI (DMS 273 small cell lung) was greater than 100 µM and the TGI (SK-MEL-5 melanoma) was greater than 100 µM. It also gave a TGI (KM12 colon) greater than 100 µM, a TGI (RXF 393 renal) greater than 100 µM and a TGI (SW-620 colon) greater than 100 µM. The TGI (SNB-19 CNS) was greater than 100 µM, the TGI (U251 CNS) was greater than 100 µM and the TGI (DLD-1 colon) was greater than 100 µM. The TGI (A498 renal) was greater than 100 µM, the TGI (LXFL 529 NSCLC) was greater than 100 µM and the TGI (IGROV1 ovarian) was greater than 100 µM. The TGI (HL-60(TB) leukemia) was greater than 100 µM, the TGI (A549 NSCLC) was greater than 100 µM and the TGI (OVCAR-3 ovarian) was greater than 100 µM. The TGI (KM20L2 colon) was greater than 100 µM, the TGI (DMS 114 small cell lung) was greater than 100 µM and the TGI (SN12C renal) was greater than 100 µM.
